Measured values reported in US8383130B2, “Partial peptide of lacritin” (Senju Pharmaceutical Co., Ltd., priority 2008, dated 2013).

Assays:
Type in all cases: cell-based
[1] = tested on: monkey lacrimal gland acinar cells; experiment: Secretion of tear protein (lactoferrin) from monkey lacrimal gland acinar cells; conditions: 1 μM polypeptide; for lactoferrin secretion amount (ng/10^5 cells): 37° C. 10 min, westernblot, human lactoferrin as standard
Experimental: Monkey lacrimal gland was chopped in a DMEM/F12 medium (Invitrogen Corporation) and treated with HBSS (Invitrogen Corporation) containing 0.76 mg/mL EDTA (Sigma-Aldrich Co.) and DMEM/F12 medium containing 200 U/mL collagenase A (Roche), 698 U/mL Hyarulonidase (Worthington Biochemical Corporation) and 10 U/mL DNase (Roche Diagnostics K.K.), and the cells were isolated. 1×10^6 cells were sown on a 6 well plate (ASAHI GLASS CO., LTD.) coated with 0.01 mg/cm^2 Collagen I (Becton, Dickinson and Company), and cultured in a CO2 incubator at 37° C. overnight. The next day, the medium was changed to a supplement-free DMEM/F12 medium and the cells were pre-incubated at 37° C. for 30 min, and then incubated in a DMEM/F12 medium containing 1 μM polypeptide 1 or 4 at 37° C. for 10 min. Lactoferrin as a tear protein secreted in the medium was detected by westernblot, and quantified using human lactoferrin (Sigma-Aldrich Co.) as the standard. The collected medium was purified by 2D clean up kit (Bio-Rad Laboratories, Inc.), dissolved in NuPAGE LDS sample buffer (Invitrogen Corporation), and thermally denatured at 70° C. for 10 min. An equivalent amount of a sample was electrophoresed in 4-12% NuPAGE Bis Tris gel in MES buffer (Invitrogen Corporation) at 200 V for 35 min, and blotted on a PVDF membrane (Nihon Millipore K.K.) at 100 V for 60 min using Trans Blot Mini Cell (Bio-Rad Laboratories, Inc.). The membrane was blocked with TTBS (Bio-Rad Laboratories, Inc.) containing 5% skim-milk (Bio-Rad Laboratories, Inc.) at room temperature for 30 min, and reacted overnight at 4° C. with lactoferrin antibody (manufactured in rabbit, Sigma-Aldrich Co.) diluted 1000-fold. After washing the membrane with TTBS, the membrane was reacted at room temperature for 60 min with secondary antibody of anti-rabbit HRP, which was diluted 5000-fold. Then detection using ECL plus (GE healthcare) was performed. In addition, the amount of the secreted lactoferrin was quantified by forming an analytical curve of human lactoferrin on the same membrane, and comparing the density of the bands.

[2] = tested on: human corneal epithelial cells (HCE-T); experiment: Adhesion of human corneal epithelial cell to extracellular matrix (Experimental Example 1); conditions: polypeptide 100 μg/mL, 50 μL per well, collagen type IV coated plate, 37° C. 20 min, MTT assay, no addition of polypeptide = 100%
Experimental: An extracellular matrix solution (10 μg/mL, collagen type IV: Becton, Dickinson and Company) was added to a 96 well plate (Iwaki Glass Company, Limited). The solution was incubated at 37° C. for 1 hr to coat the plate with the extracellular matrix. After the redundant extracellular matrix solution was removed, 0.1% BSA solution (Sigma-Aldrich Co.) was added to block the region not coated with the extracellular matrix. Successively, the BSA solution was removed and the plate was washed twice with PBS, and polypeptides 1-5 (concentration 100 μg/mL) synthesized in Example 1 and Comparative Example 1 were added by 50 μL per well. Furthermore, established human corneal epithelial cells (HCE-T: can be prepared by the method described in Invest Ophthalmol Vis Sci. 1995, 36, 614) were cultured overnight under serum-free conditions and added to the plate at 2×10^4 cells/100 μL DMEM/F12 medium/well. The plate was incubated at 37° C. for 20 min to allow adhesion of the cells to the plate. The number of the adhered cells was counted by MTT assay (DOJINDO LABORATORIES).

[3] = tested on: human corneal epithelial cells (HCE-T); experiment: Adhesion of human corneal epithelial cell to extracellular matrix (Experimental Example 2); conditions: polypeptide 10 μM in PBS, 50 μL per well, collagen type IV coated plate, 37° C. 25 min, MTT assay, no addition of polypeptide = 100%
Experimental: An extracellular matrix solution (10 μg/mL, collagen type IV: Becton, Dickinson and Company) was added to a 96 well plate (Iwaki Glass Company, Limited). The solution was incubated at 37° C. for 1 hr to coat the plate with the extracellular matrix. After the redundant extracellular matrix solution was removed, 0.1% BSA solution (Sigma-Aldrich Co.) was added to block the region not coated with the extracellular matrix. Successively, the BSA solution was removed and the plate was washed three times with PBS, and polypeptides 4, 6 and 7 synthesized in Example 2 and Comparative Example 1 were suspended in PBS to a final concentration of 10 μM, and the suspension was added by 50 μL per well. Furthermore, established human corneal epithelial cells (HCE-T: can be prepared by the method described in Invest Ophthalmol Vis Sci. 1995, 36, 614) were cultured overnight under serum-free conditions and added to the plate at 2×10^4 cells/100 μL DMEM/F12 medium/well. The plate was incubated at 37° C. for 25 min to allow adhesion of the cells to the well. The number of the adhered cells was counted by MTT assay (DOJINDO LABORATORIES).

EISGPAEPASPPETTTTAQETSAAAVQGTAKVT (listed as Homo sapiens) [polypeptide 4, reference compound]
lactoferrin secretion amount (ng/10^5 cells) [1]: 2.79 ng/10^5 cells
cell adhesion rate (%) [2]: 100%
cell adhesion rate (%) [3]: 107%

QGTAKVTSSRQELNPLKSIVEKSILLTEQALAKAGKGMHGGVPGGKQFIENGSEF (listed as Homo sapiens) [polypeptide 3]
cell adhesion rate (%) [2]: 147%

VQGTAKVTSSRQELNPLKSIVEKSILLTEQALAKA (listed as Homo sapiens) [polypeptide 1]
lactoferrin secretion amount (ng/10^5 cells) [1]: 11.7 ng/10^5 cells
promotion of secretion of lactoferrin (in words) ([1]; 10 min): promoted the secretion of lactoferrin
cell adhesion rate (%) [2]: 147%

EISGPAEPASPPETTTTAQETSAAAVQGTAKVTSSRQELNPLKSIVEKSILLTEQALAKA (listed as Homo sapiens) [polypeptide 7]
cell adhesion rate (%) [3]: 190%

QGTAKVTSSRQELNPLKSIVEKSILLTEQALAKA (listed as Homo sapiens) [polypeptide 6]
cell adhesion rate (%) [3]: 160%

QGTAKVTSSRQELNPLKSIVEKSILLTEQALAKAGKGMHGGVPGG (listed as Homo sapiens) [polypeptide 2]
cell adhesion rate (%) [2]: 134%

QGTAKVTSSRQELNPL (listed as Homo sapiens) [polypeptide 5, reference compound]
cell adhesion rate (%) [2]: 98%
